Measured values: patent US8877731B2, “Azido nucleosides and nucleotide analogs” (Alios Biopharma, Inc., priority 2010, dated 2014)
Read-outs that look alike come from different tables or passages of the source.

Columns and labels:
RSV Long strain = assay: RSV CPE reduction assay; format: cell-based
Experimental: CPE reduction assays were performed as described by Sidwell and Huffman et al., Appl Microbiol. (1971) 22(5):797-801 with slight modifications. HEp-2 cells (ATCC) at a concentration of 6000 cell/well were infected with RSV Long strain (ATCC) at a multiplicity of infection (m.o.i.) of 0.01, and each of the test compounds were provided to duplicate wells at final concentrations starting from 100 μM using ⅓ stepwise dilutions. For each compound, two wells were set aside as uninfected, untreated cell controls (CC), and two wells per test compound received virus only as a control for virus replication (VC). […] At the end of the incubation, 20 μl of cell counting kit-8 reagent (CCK-8, Dojindo Molecular Technologies, Inc.) were added to each well. After 4 hour incubation, the absorbance was measured in each well according to manufacturer's instruction, and the 50% effective concentration (EC50) was calculated by using regression analysis, based on the mean O.D. at each concentration of compound.
(§1) Compounds of Formula (I) and Formula (II) are active in the assay as noted in Tables 2 and 3, where ‘A’ indicates an EC50<1 μM, ‘B’ indicates an EC50 of >1 μM and <10 μM, ‘C’ indicates an EC50>10 μM and <100 μM, and ‘D’ indicates an EC50>100 μM.

RSV A2 = assay: RSV RT-PCR based assay; format: cell-based
Experimental: RT-PCR based assays were performed in HEp-2 cells (ATCC: CCL-23) at a concentration of 20000 cell/well were plated in 96 well plates and incubated overnight. Each of the test compounds were ⅓ serially diluted and dosed to HEp-2 cells in duplicates. The highest final concentration for each compound was 100 uM. After 24 hour compound pre-incubation, RSV A2 (ATCC: VR-1540) at MOI of 0.1 was added. Two wells per compound were set aside as uninfected, untreated cell controls (CC), and four wells per test compound received virus only as a control for virus replication (VC). The assay was stopped 4 days after virus infection and conditioned media was removed for viral RNA isolation. The quantities of the RSV virus were measured by real-time PCR using a set of RSV specific primers and probe. The data was analyzed with Prism software with EC50 defined as drug concentration that reduced the viral load 50% from the viral control (VC).
as §1

[1] = human respiratory syncytial virus, 144 h, CPE assay, HEp-2 cells infected with RSV Long strain, m.o.i. 0.01, 6 days, CCK-8 readout, read-out: EC50
[2] = human respiratory syncytial virus, RT-PCR assay, HEp-2 cells, 24 hour compound pre-incubation, RSV A2 at MOI 0.1, 4 days after infection, viral load, read-out: EC50

| SMILES | EC50 (RSV Long strain; [1]) [µM] | EC50 (RSV A2; [2]) [µM] | other results |
| --- | --- | --- | --- |
| [N-]=[N+]=N[C@]1(CO)O[C@@H](n2ccc(N)nc2=O)C(F)(F)[C@@H]1O [Compound 1, 4′-azido-2′-deoxy-2′,2′-difluorocytidine] | < 1 | < 1 | – |
| [N-]=[N+]=N[C@]1(CO)O[C@@H](n2ccc(=O)[nH]c2=O)C(F)(F)[C@@H]1O [Compound 5, 4′-azido-2′-deoxy-2′,2′-difluorouridine] | > 100 | > 100 | – |
| C[C@@H]1[C@H](n2ccc(=O)[nH]c2=O)O[C@@](CO)(N=[N+]=[N-])[C@H]1O [Compound 6, 4′-azido-2′-deoxy-2′-methylarabinouridine] | > 100 | – | – |
| [N-]=[N+]=N[C@]1(CO)O[C@@H](n2ccc(N)nc2=O)[C@H](O)[C@@H]1O [Compound 7, 4′-azidocytidine] | 10 to 100 | 1 to 10 | – |
| [N-]=[N+]=N[C@]1(CO)O[C@@H](n2ccc(=O)[nH]c2=O)[C@H](O)[C@@H]1O [Compound 8, 4′-azidouridine] | > 100 | – | – |
| C[C@@H]1[C@H](n2ccc(N)nc2=O)O[C@@](CO)(N=[N+]=[N-])[C@H]1O [Compound 9, 4′-azido-2′-deoxy-2′-methylarabinocytidine] | > 100 | – | – |
| [N-]=[N+]=N[C@]1(CO)O[C@@H](n2ccc(N)nc2=O)[C@@H](O)[C@@H]1O [Compound 11, 4′-azidoarabinocytidine] | < 1 | < 1 | – |
| [N-]=[N+]=N[C@]1(CO)O[C@@H](n2ccc(=O)[nH]c2=O)[C@@H](O)[C@@H]1O [Compound 12, 4′-azidoarabinouridine] | > 100 | > 100 | – |
| CC(C)OC(=O)[C@H](C)NP(=S)(OC[C@@]1(N=[N+]=[N-])O[C@@H](n2ccc(=O)[nH]c2=O)[C@H](O)[C@@H]1O)Oc1ccccc1 (stereo partly drawn) [Compound 15, 4′-azidouridine 5′-(O-phenyl-N—(S)-1-(isopropoxycarbonyl)eth-1-yl)thiophosphoramidate] | – | – | EC50 (RSV Long strain; human respiratory syncytial virus, HEp-2, 144 h): < 1 µM; EC50 (RSV A2; human respiratory syncytial virus, HEp-2): < 1 µM |
| [N-]=[N+]=N[C@]1(CO)O[C@@H](n2ccc(=O)[nH]c2=O)[C@H](F)[C@@H]1O [Compound 17, 4′-azido-2′-deoxy-2′-fluorouridine] | > 100 | > 100 | – |
| CC(C)OC(=O)[C@H](C)NP(=O)(OC[C@@]1(N=[N+]=[N-])O[C@@H](n2ccc(N)nc2=O)C(F)(F)[C@@H]1O)Oc1ccccc1 (stereo partly drawn) [Compound 18, 4′-azido-2′-deoxy-2′,2′-difluorocytidine 5′-(O-phenyl-N—(S)-1-(isopropoxycarbonyl)ethyl)phosphoramidate] | 1 to 10 | 1 to 10 | – |
| CC(C)OC(=O)[C@H](C)NP(=O)(OC[C@@]1(N=[N+]=[N-])O[C@@H](n2ccc(=O)[nH]c2=O)C(F)(F)[C@@H]1O)Oc1ccccc1 (stereo partly drawn) [Compound 19, 4′-azido-2′-deoxy-2′,2′-difluorouridine 5′-(O-phenyl-N—(S)-1-(isopropoxycarbonyl)ethyl)phosphoramidate] | > 100 | > 100 | – |
| [N-]=[N+]=N[C@]1(CO)O[C@@H](n2ccc(=O)[nH]c2=O)[C@@H](F)[C@@H]1O [Compound 20, 4′-azido-2′-deoxy-2′-fluoroarabinouridine] | > 100 | > 100 | – |
| CC(C)OC(=O)[C@H](C)NP(=O)(OC[C@@]1(N=[N+]=[N-])O[C@@H](n2ccc(=O)[nH]c2=O)[C@H](O)[C@@H]1O)Oc1ccccc1 (stereo partly drawn) [Compound 21, 4′-azidouridine 5′-(O-phenyl-N—(S)-1-(isopropoxycarbonyl)eth-1-yl)phosphoramidate] | < 1 | < 1 | – |
| CC(C)OC(=O)[C@H](C)NP(=O)(OC[C@@]1(N=[N+]=[N-])O[C@@H](n2ccc(N)nc2=O)[C@H](O)[C@@H]1O)Oc1ccccc1 (stereo partly drawn) [Compound 22, 4′-azidocytidine 5′-(O-phenyl-N—(S)-1-(isopropoxycarbonyl)ethyl)phosphoramidate] | < 1 | < 1 | – |
| CC(C)OC(=O)[C@H](C)NP(=O)(OC[C@@]1(N=[N+]=[N-])O[C@@H](n2ccc(N)nc2=O)[C@H](F)[C@@H]1O)Oc1ccccc1 (stereo partly drawn) [Compound 23, 4′-azido-2′-deoxy-2′-fluorocytidine 5′-(O-phenyl-N—(S)-1-(isopropoxycarbonyl)ethyl)phosphoramidate] | 1 to 10 | 1 to 10 | – |
| CC(C)OC(=O)[C@H](C)NP(=O)(OC[C@@]1(N=[N+]=[N-])O[C@@H](n2ccc(=O)[nH]c2=O)[C@H](F)[C@@H]1O)Oc1ccccc1 (stereo partly drawn) [Compound 24, 4′-azido-2′-deoxy-2′-fluorouridine 5′-(O-phenyl-N—(S)-1-(isopropoxycarbonyl)ethyl)phosphoramidate] | > 100 | > 100 | – |
| [N-]=[N+]=N[C@]1(CO)O[C@@H](n2cnc3nc(N)[nH]c(=O)c32)[C@H](O)[C@@H]1O [Compound 25, 2-amino-7-(4-azido-β-D-ribofuranos-1-yl)-1H-purin-6(7H)-one] | > 100 | > 100 | – |
| CC(C)OC(=O)[C@H](C)NP(=O)(OC[C@@]1(N=[N+]=[N-])O[C@@H](n2ccc(=O)[nH]c2=O)[C@@H](F)[C@@H]1O)Oc1ccccc1 (stereo partly drawn) [Compound 26, 4′-azido-2′-deoxy-2′-fluorouarabinoridine 5′-(O-phenyl-N—(S)-1-(isopropoxycarbonyl)ethyl)phosphoramidate] | > 100 | > 100 | – |
| C[C@H](NP(=O)(OC[C@@]1(N=[N+]=[N-])O[C@@H](n2cnc3c(=O)[nH]c(N)nc32)[C@H](O)[C@@H]1O)Oc1ccccc1)C(=O)OC1CCCCC1 (stereo partly drawn) [Compound 29, 4′-azidoguanosine 5′-[O-phenyl-N—((S)-cyclohexoxycarbonyleth-1-yl))phosphoramidate] | < 1 | < 1 | – |
| C[C@H](NP(=O)(OCC1(N=[N+]=[N-])OC(n2cnc3c(=O)[nH]c(N)nc32)C(F)C1O)Oc1ccccc1)C(=O)OC1CCCCC1 (stereo partly drawn) [Compound 31, 4′-azido-2′-deoxy-2′-fluoroguanosine 5′-(O-phenyl-N—((S)-cyclohexoxycarbonyleth-1-yl))phosphoramidate] | – | – | EC50 (RSV Long strain; CPE assay, HEp-2 cells infected with RSV Long strain, m.o.i. 0.01, 6 days, CCK-8 readout, read-out: EC50): < 1 µM; EC50 (RSV A2; RT-PCR assay, HEp-2 cells, 24 hour compound pre-incubation, RSV A2 at MOI 0.1, 4 days after infection, viral load, read-out: EC50): < 1 µM |
| [N-]=[N+]=N[C@@]12COP(=O)(O)O[C@H]1[C@@H](F)[C@H](n1ccc(=O)[nH]c1=O)O2 [Compound 32, 4′-azido-2′-deoxy-2′-fluorouridine 3′,5′-cyclic phosphate] | > 100 | – | – |
| CC(C)OC(=O)[C@H](C)NP(=O)(N[C@@H](C)C(=O)OC(C)C)OC[C@@]1(N=[N+]=[N-])O[C@@H](n2ccc(N)nc2=O)C(F)(F)[C@@H]1O [Compound 33, 4′-azido-2′-deoxy-2′-difluorocytidine 5′-(N,N′-bis((S)-1-(isopropoxycarbonyl)ethyl))phosphordiamidate] | < 1 | < 1 | – |
| CC(C)OC(=O)[C@H](C)NP(=O)(OC[C@@]1(N=[N+]=[N-])O[C@@H](n2ccc(N)nc2=O)[C@@H](O)[C@@H]1O)Oc1ccccc1 (stereo partly drawn) [Compound 34, 4′-azidoarabinocytidine 5′-(O-phenyl-N—(S)-1-(isopropoxycarbonyl)ethyl)phosphoramidate] | > 100 | > 100 | – |
| CC(C)OC(=O)[C@H](C)NP(=O)(OC[C@@]1(N=[N+]=[N-])O[C@@H](n2ccc(=O)[nH]c2=O)[C@@H](O)[C@@H]1O)Oc1ccccc1 (stereo partly drawn) [Compound 35, 4′-azidoarabinouridine 5′-(O-phenyl-N—(S)-1-(isopropoxycarbonyl)ethyl)phosphoramidate] | < 1 | < 1 | – |
| CC(C)OC(=O)[C@H](C)NP(=O)(OC[C@@]1(N=[N+]=[N-])O[C@@H](n2ccc(=O)[nH]c2=O)[C@@H](C)[C@@H]1O)Oc1ccccc1 (stereo partly drawn) [Compound 36, 4′-azido-2′-deoxy-2′-methylarabinouridine 5′-(O-phenyl-N—(S)-1-(isopropoxycarbonyl)ethyl)phosphoramidate] | > 100 | > 100 | – |
| CC(C)OC(=O)[C@H](C)NP(=O)(OC[C@@]1(N=[N+]=[N-])O[C@@H](n2cnc3c(N)ncnc32)[C@H](F)[C@@H]1O)Oc1ccccc1 (stereo partly drawn) [Compound 37, 4′-azido-2′-deoxy-2′-fluoroadenosine 5′-(O-phenyl-N—(S)-1-(isopropoxycarbonyl)ethyl)phosphoramidate] | 1 to 10 | 1 to 10 | – |
| [N-]=[N+]=N[C@]1(CO)O[C@@H](n2ccc(N)nc2=O)[C@H](Cl)[C@@H]1O [Compound 53, 4′-azido-2′-chloro-2′-deoxycytidine] | – | 1 to 10 | – |
